Data taken from patent US8927596B2, “Antischistosomal agent” (National University Corporation Okayama University, priority 2008, dated 2015).

How the values were obtained:
[1] = test system: schistosomes (Schistosoma mansoni); assay: Number of schistosomes in vivo (Experimental Example 1); settings: infected BALB/c mice, oral, administered on Days 14 and 15 after the infection, counted on Week 6 after the infection
Description: 100 μl of the antischistosomal agent of the present invention were orally administered to mice (BALB/c mice, 5-week-old) infected with schistosomes (Schistosoma mansoni) in accordance with a drug dosage regimen of FIG. 2. As a control, 100 μl of olive oil was administered. On Week 6 after the infection, the mice were sacrificed with an overdose of anesthetic, and the number of schistosomes recovered was counted under a microscope.

[2] = test system: schistosomes (Schistosoma mansoni); assay: Number of schistosomes and number of eggs produced per adult female schistosome (Experimental Example 2); assay type: in vivo; settings: infected BALB/c mice, oral, measured on Week 9
Description: 100 μl of the antischistosomal agent of the present invention were orally administered to mice (BALB/c mice, 5-week-old) infected with schistosomes (Schistosoma mansoni) in accordance with a drug dosage regimen of FIG. 4. As a control, 100 μl of olive oil was administered. On Week 9 after the infection, the mice were sacrificed with an overdose of anesthetic, and the number of schistosomes recovered and the number of eggs produced per adult female schistosome were measured. The number of schistosomes was measured in the same manner as in Experimental Example 1, and the number of eggs produced was also counted under a microscope.

[3] = test system: schistosomes (Schistosoma mansoni); assay: Macroscopic findings on liver lesions in schistosome-infected mice (Experimental Example 3); assay type: in vivo; settings: infected BALB/c mice, viscera observed macroscopically
immature schistosomes = settings: as reported in the literature (Non Patent Literature 1); cited from earlier work
[4] = administration on each of Weeks 5 to 7 after the infection

| Compound | number of schistosomes reduced as compared to the olive oil administration group [1] | number of eggs produced reduced ([2]; administration on Week 5 only after the infection) | number of eggs produced per adult female schistosome reduced as compared to the olive oil administration group [2, 4] | number of schistosomes as compared to the olive oil administration group [2, 4] | liver lesions due to eggs of schistosomes (macroscopic) ([3]; administered on Week 5 after the infection) | enlargement of spleen [3] | effect on schistosomes at the immature stage (immature schistosomes) |
| --- | --- | --- | --- | --- | --- | --- | --- |
| C1CCCCCC2(CCCCC1)OOCCCOO2 [antischistosomal agent, 1,2,6,7-tetraoxaspiro[7.11]nonadecane] | 86% | 87% | 98% | not significantly reduced | few liver lesions | inhibited | – |
| O=C(C1CCCCC1)N1CC(=O)N2CCc3ccccc3C2C1 (stereo not shown) [praziquantel] | – | – | – | – | – | – | not effective |
